Laboratory results: patent US20060063759A1, “Tricyclic steroid hormone nuclear receptor modulators” (priority 2002, published 2006)

Legend:
human MR = target: T1, human MR (Homo sapiens, UniProt P08235); assay: Mineralocorticoid Receptor Binding Assay ([3H]-aldosterone); conditions: [3H]-aldosterone binding, human MR expressed in Sf9 cells; read-out: MR Ki
T1 construct: The full length human MR gene is cloned from a human kidney or human brain cDNA library; His tag from the pAcHLT vector (own knowledge); made in house; host or cells: Sf9 insect cells (baculovirus, pAcHLT transfer vector)
T1 sequence (P08235 1-984): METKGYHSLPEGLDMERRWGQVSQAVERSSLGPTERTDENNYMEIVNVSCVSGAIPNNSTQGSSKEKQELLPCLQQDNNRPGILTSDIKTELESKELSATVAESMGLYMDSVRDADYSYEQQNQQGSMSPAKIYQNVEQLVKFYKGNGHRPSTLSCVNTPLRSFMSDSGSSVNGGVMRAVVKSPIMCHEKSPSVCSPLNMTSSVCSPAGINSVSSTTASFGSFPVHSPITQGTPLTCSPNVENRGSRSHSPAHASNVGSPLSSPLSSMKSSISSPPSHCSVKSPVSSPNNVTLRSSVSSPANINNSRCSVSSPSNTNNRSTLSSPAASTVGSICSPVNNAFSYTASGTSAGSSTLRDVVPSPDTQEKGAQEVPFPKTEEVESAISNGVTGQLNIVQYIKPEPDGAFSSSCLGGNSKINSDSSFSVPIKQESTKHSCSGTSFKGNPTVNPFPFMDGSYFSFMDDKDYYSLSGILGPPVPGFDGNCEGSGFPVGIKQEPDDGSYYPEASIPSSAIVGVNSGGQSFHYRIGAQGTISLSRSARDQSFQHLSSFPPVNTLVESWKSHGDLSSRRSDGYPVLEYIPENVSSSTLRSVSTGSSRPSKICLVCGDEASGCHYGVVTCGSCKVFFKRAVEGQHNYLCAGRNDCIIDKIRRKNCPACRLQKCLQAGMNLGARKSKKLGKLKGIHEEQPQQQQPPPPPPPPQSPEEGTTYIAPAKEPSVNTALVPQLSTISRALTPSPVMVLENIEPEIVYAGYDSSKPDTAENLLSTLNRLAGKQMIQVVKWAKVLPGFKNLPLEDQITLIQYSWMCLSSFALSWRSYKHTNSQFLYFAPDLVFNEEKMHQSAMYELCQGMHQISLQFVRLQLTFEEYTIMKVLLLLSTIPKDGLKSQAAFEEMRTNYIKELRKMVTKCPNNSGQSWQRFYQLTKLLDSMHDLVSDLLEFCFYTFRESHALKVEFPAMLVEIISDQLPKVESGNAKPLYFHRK
Summary of the method: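 Receptor source: freeze-thaw lysate of baculovirus-infected Sf9 cells carrying full-length human MR, 20-25 μg protein. Incubation ~16 h at 4 °C with shaking, pH 7.5 buffer containing 30 mM sodium molybdate and 10% glycerol.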

glucocorticoid receptor = target: T2, glucocorticoid receptor (Homo sapiens, UniProt P04150); assay: Glucocorticoid Receptor Binding Assay ([3H]-dexamethasone, A549 cell extract); conditions: [3H]-dexamethasone binding, read-out: GR Ki
T2 construct: containing 50-200 ug of A549 cell extract and 1.86 nM [^3H]-dexamethasone; host or cells: A549 human lung epithelial cells (sonicated cell extract)
T2 sequence (P04150 1-777): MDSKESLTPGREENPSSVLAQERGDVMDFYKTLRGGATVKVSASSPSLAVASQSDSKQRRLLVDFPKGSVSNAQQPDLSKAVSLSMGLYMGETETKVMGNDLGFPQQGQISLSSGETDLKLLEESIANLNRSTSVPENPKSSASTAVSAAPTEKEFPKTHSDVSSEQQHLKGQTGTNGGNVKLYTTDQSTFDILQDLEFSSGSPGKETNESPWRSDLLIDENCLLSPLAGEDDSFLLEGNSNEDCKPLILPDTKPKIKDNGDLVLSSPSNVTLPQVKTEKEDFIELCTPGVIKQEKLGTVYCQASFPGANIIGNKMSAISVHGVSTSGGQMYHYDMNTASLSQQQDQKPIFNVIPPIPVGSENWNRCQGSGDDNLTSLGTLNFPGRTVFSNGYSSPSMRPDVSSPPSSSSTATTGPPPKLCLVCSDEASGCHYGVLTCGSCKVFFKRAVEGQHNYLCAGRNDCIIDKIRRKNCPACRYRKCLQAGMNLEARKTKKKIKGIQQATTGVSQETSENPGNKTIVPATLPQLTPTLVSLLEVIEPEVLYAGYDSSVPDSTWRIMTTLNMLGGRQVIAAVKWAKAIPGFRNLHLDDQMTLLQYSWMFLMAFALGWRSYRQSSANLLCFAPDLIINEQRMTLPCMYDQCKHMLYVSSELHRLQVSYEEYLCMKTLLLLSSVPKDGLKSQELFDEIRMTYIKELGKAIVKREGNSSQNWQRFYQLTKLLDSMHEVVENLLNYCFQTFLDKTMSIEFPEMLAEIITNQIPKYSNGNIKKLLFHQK
Summary of the method: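 Displacement of [3H]-dexamethasone (1.86 nM) from glucocorticoid receptor in sonicated A549 lung epithelial cell extracts, 16 h at 4 °C, pH 7.2 molybdate-containing buffer. Bound radioactivity was scintillation-counted after charcoal/dextran stripping of free ligand.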

Row | SMILES | Ki (human MR) [nM] | Ki (glucocorticoid receptor) [nM]
1 | CS(=O)(=O)Nc1cccc(/C=C2\c3ccccc3CCc3ncccc32)c1 [Example 506] | < 500 | < 500
2 | CS(=O)(=O)Nc1cccc(/C=C2\c3ccccc3CCc3ccncc32)c1 [Example 515] | < 500 | < 10000
3 | CS(=O)(=O)Nc1cccc(C[C@H]2c3ccccc3CCc3ncccc32)c1 [Example 517] | < 500 | < 1000
4 | O=c1[nH]c2ccc(/C=C3/c4ccc(F)cc4CCc4ncccc43)cc2[nH]1 [Example 518] | < 500 | < 500
5 | CS(=O)(=O)Nc1cccc(CC2c3ccc(F)cc3CCc3ncccc32)c1 (centres unmarked) [Example 519] | < 500 | < 500
6 | CS(=O)(=O)Nc1cccc(/C=C2/c3ccc(F)cc3CCc3nc(C(F)(F)F)ccc32)c1 [Example 521] | < 500 | < 500
7 | CS(=O)(=O)Nc1cccc(/C=C2\c3ccc(F)cc3CCc3nc(C(F)(F)F)ccc32)c1 [Example 522] | < 500 | < 500
8 | CS(=O)(=O)Nc1cc(F)cc(/C=C2/c3ccc(F)cc3CCc3ncccc32)c1 [Example 525] | < 500 | < 500
9 | Fc1ccc2c(c1)CCc1ncccc1/C2=C/c1ccccc1 [Example 526] | < 500 | < 10000
10 | Oc1ccc(/C=C2\c3ccc(F)cc3CCc3ncccc32)cc1 [Example 528] | < 500 | < 1000
11 | Oc1ccc(/C=C2/c3ccc(F)cc3CCc3ncccc32)cc1 [Example 529] | < 500 | < 10000
12 | Nc1ccccc1/C=C1\c2ccc(F)cc2CCc2ncccc21 [Example 530] | < 500 | < 500
13 | Nc1ccccc1/C=C1/c2ccc(F)cc2CCc2ncccc21 [Example 531] | < 500 | < 500
14 | Nc1cccc(/C=C2/c3ccc(F)cc3CCc3ncccc32)c1 [Example 533] | < 500 | < 1000
15 | O=c1[nH]c2cc(/C=C3\c4ccc(F)cc4CCc4ncccc43)ccc2s1 [Example 536] | < 500 | < 500
16 | Fc1ccc2c(c1)CCc1ncccc1/C2=C/c1ccccc1C(F)F [Example 539] | < 500 | < 500
17 | Fc1ccc2c(c1)CCc1ncccc1/C2=C\c1cccc(C(F)F)c1 [Example 542] | < 500 | < 10000
18 | Fc1ccc2c(c1)CCc1ncccc1/C2=C/c1ccc(C(F)F)cc1 [Example 543] | < 500 | < 10000
19 | Fc1ccc2c(c1)CCc1ncccc1/C2=C\c1ccc(C(F)F)cc1 [Example 544] | < 500 | < 1000
20 | CS(=O)(=O)Nc1cc(F)cc(/C=C2\c3ccc(Cl)cc3CCc3cccnc32)c1 [Example 548] | < 500 | < 10000
21 | O=c1[nH]c2ccc(/C=C3/c4ccc(F)cc4CCc4nc(Cl)sc43)cc2[nH]1 [Example 549] | < 500 | < 10000
22 | CS(=O)(=O)Nc1cccc(/C=C2/c3ccc(F)cc3CCc3nc(Cl)sc32)c1 [Example 551] | < 500 | < 500
23 | CS(=O)(=O)Nc1cccc(/C=C2/c3ccc(Cl)cc3CCc3ncsc32)c1 [Example 552] | < 500 | < 500
24 | CS(=O)(=O)Nc1cccc(/C=C2\c3ccc(Cl)cc3CCc3ncsc32)c1 [Example 553] | < 500 | < 500
25 | CS(=O)(=O)Nc1cccc(/C=C2\c3ccccc3CCc3ncsc32)c1 [Example 556] | < 500 | < 500
26 | CS(=O)(=O)Nc1cccc(/C=C2\c3ccccc3CCc3nc(N)sc32)c1 [Example 559] | < 500 | < 500
27 | O=c1[nH]c2ccc(/C=C3\c4ccccc4CCc4ncsc43)cc2[nH]1 [Example 561] | < 500 | < 1000

The next lines start with the values.

Row | Ki (human MR) [nM] | Ki (glucocorticoid receptor) [nM] | SMILES
28 | < 500 | < 1000 | CS(=O)(=O)Nc1cccc(C=C2c3ccccc3CCc3ncccc32)c1 [Example 505]
29 | < 500 | < 500 | Oc1cccc(/C=C2/c3ccccc3CCc3ncccc32)c1 [Example 507]
30 | < 500 | < 10000 | CS(=O)(=O)Nc1cccc(/C=C2/c3ccc(F)cc3CCc3ncccc32)c1 [Example 510]
31 | < 1000 | < 500 | Oc1cccc(/C=C2/c3ccccc3CCc3ccncc32)c1 [Example 514]
32 | < 500 | < 500 | CS(=O)(=O)Nc1cccc(CC2c3ccc(F)cc3CCc3ncccc32)c1 (centres unmarked) [Example 520]
33 | < 500 | < 500 | CS(=O)(=O)Nc1cc(/C=C2\c3ccc(F)cc3CCc3ncccc32)ccc1F [Example 524]
34 | < 500 | < 10000 | Fc1ccc2c(c1)CCc1ncccc1/C2=C\c1ccccc1 [Example 527]
35 | < 500 | < 1000 | Nc1cccc(/C=C2\c3ccc(F)cc3CCc3ncccc32)c1 [Example 532]
36 | < 500 | < 10000 | Nc1ccc(/C=C2\c3ccc(F)cc3CCc3ncccc32)cc1 [Example 534]
37 | < 1000 | < 10000 | Nc1ccc(/C=C2/c3ccc(F)cc3CCc3ncccc32)cc1 [Example 535]
38 | < 500 | < 10000 | CS(=O)(=O)Nc1ccc(/C=C2/c3ccc(F)cc3CCc3ncccc32)cc1 [Example 537]
39 | < 500 | < 500 | CS(=O)(=O)Nc1cccc(CC2c3ccccc3CCc3cccnc32)c1 (centres unmarked) [Example 538]
40 | < 500 | < 500 | Fc1ccc2c(c1)CCc1ncccc1/C2=C\c1ccccc1C(F)F [Example 540]
41 | < 500 | < 1000 | Fc1ccc2c(c1)CCc1ncccc1/C2=C/c1cccc(C(F)F)c1 [Example 541]
42 | < 500 | < 10000 | CC(=O)Nc1cccc(/C=C2\c3ccc(F)cc3CCc3ncccc32)c1 [Example 545]
43 | < 500 | < 500 | CS(=O)(=O)Nc1cccc(/C=C2/c3ccc(F)cc3CCc3nc(C#N)ccc32)c1 [Example 546]
44 | < 500 | < 500 | CS(=O)(=O)Nc1cccc(/C=C2\c3ccc(F)cc3CCc3nc(C#N)ccc32)c1 [Example 547]
45 | < 500 | < 500 | CS(=O)(=O)Nc1cccc(/C=C2\c3ccc(F)cc3CCc3nc(Cl)sc32)c1 [Example 550]
46 | < 500 | < 1000 | CS(=O)(=O)Nc1cccc(/C=C2\c3scnc3CCc3cccc(Cl)c32)c1 [Example 554]
47 | < 500 | < 500 | CS(=O)(=O)Nc1cccc(/C=C2/c3ccccc3CCc3ncsc32)c1 [Example 555]
48 | < 500 | < 500 | CS(=O)(=O)Nc1cccc(/C=C2/c3cccnc3CCc3cccc(F)c32)c1 [Example 557]
49 | < 500 | < 1000 | Nc1nc2c(s1)C(=Cc1cccc(O)c1)c1ccccc1CC2 [Example 560]
